{"source": "paper PMC10217883", "about": "“Structure of Leishmania donovani 6-Phosphogluconate Dehydrogenase and Inhibition by Phosphine Gold(I) Complexes: A Potential Approach to Leishmaniasis Treatment” (International Journal of Molecular Sciences, 2023)", "key": {"[1]": {"test_system": "Leishmania parasites", "set-up": "method as in PMID 24328400, PMID 32463611, PMID 33139647", "conditions": "trypanosomatid parasites; cited from earlier work"}, "[2]": {"molecular_target": "T1, Ld6PGD (Leishmania donovani, UniProt Q18L02)", "assay": "Dose-response of gold(I)-based compounds against recombinant Ld6PGD (NADPH fluorescence)", "type": "biochemical", "procedure": "(§1) Dose–response curves of gold(I)-based compounds against Ld6PGD were determined in 96-well plates using a Tecan Infinite M200 plate reader (Tecan, Maennedorf, Switzerland). An amount of 10 mM of each compound was dissolved in 100% DMSO and afterwards diluted in assay buffer to the required concentrations (highest final compound concentration of 100 μM). The DMSO tolerance of the enzymes was determined in advance by incubating the enzymes with up to 6% DMSO and determining their activity. Up to this concentration, no impairment of the enzymes’ catalytic activity was observed. In addition, a DMSO control was included in each measurement.\nDifferent compound concentrations were added to one volume of enzyme mix (final concentrations: 50 mM Tris (pH 7.5), 0.005% Tween 20, 1 mg∙mL^−1 BSA, 0.7 nM Ld6PGD/0.7 nM Pf6PGD/0.9 nM Hs6PGD) and incubated for ten minutes. To start the reaction, one volume substrate mix (final concentrations: 50 mM Tris (pH 7.5), 0.005% Tween 20, 1 mg∙mL^−1 BSA, 3.3 mM MgCl2, 25/20/25 µM 6PG, 20 µM NADP^+ for Ld6PGD, Pf6PGD and Hs6PGD) was added to the wells. To increase the sensitivity of the assay, the increase of NADPH was monitored by measuring the fluorescence of NADPH at excitation 340 nm/emission 460 nm (ex340/em460). The substrate mix without 6PG served as a positive control (100% inhibition) and without the compound, but with DMSO as a negative control (100% activity). The assay contained both substrates either in saturation or at concentrations close to KM to facilitate the identification of competitive inhibitors. The reaction rate was calculated by dividing the relative fluorescence units (RFU) by time, and only a linear increase in absorbance/fluorescence was considered. IC50 values were calculated using GraphPad Prism 9.0 software and Microsoft Excel."}, "[3]": {"molecular_target": "TR from Leishmania infantum (LiTR)", "set-up": "method as in PMID 21833767", "conditions": "read-out: Ki against recombinant TR from Leishmania infantum (LiTR); cited from earlier work"}, "[4]": {"molecular_target": "T1, Ld6PGD", "assay": "Reversibility of Ld6PGD inhibition (incubation at high concentration, then dilution)", "type": "biochemical", "procedure": "In detail, 14 nM Ld6PGD was incubated with 30 µM auranofin for 10 min at room temperature. […] Afterwards, NADP^+ and 6PG were added to start the reaction, either at substrate saturation (300 µM 6PG, 200 µM NADP^+) or at concentrations close to KM (25 µM 6PG, 20 µM NADP^+). For comparison, controls containing either no inhibitor (100% activity) or inhibitor in the concentration remaining after dilution were prepared. NADPH production was monitored at ex340 nm using the Tecan Infinite M200 plate reader in 96-well plates. Specific activities were calculated from reaction rates. […] Inhibition was considered reversible if the activity of the sample was equal to the controls."}, "[5]": {"molecular_target": "T1, Ld6PGD", "assay": "Mode-of-inhibition study, substrate titration at constant auranofin concentrations (Michaelis-Menten)", "type": "biochemical", "conditions": "for Vmax, NADP+ titrated: 6PG in saturation; for Vmax, 6PG titrated: NADP+ in saturation", "procedure": "For the mechanistic characterization of auranofin, either NADP^+ (0–200 µM) or 6PG (0–250 µM) was titrated at different constant compound concentrations around the IC50 (0–30 µM), while keeping the second substrate in saturation (6PG: 300 µM, NADP^+: 200 µM). To determine the compound mode of inhibition, the relationship between initial velocity (v0) and substrate concentrations ([S]) at various constant compound concentrations was analyzed by plotting the data as Michaelis–Menten curves using GraphPad Prism; KM values and Vmax were calculated with GraphPad Prism as well."}, "[6]": {"molecular_target": "Pf6PGD (Plasmodium falciparum, UniProt Q8IKT2)", "assay": "Dose-response against recombinant Pf6PGD (NADPH fluorescence)", "type": "biochemical", "procedure": "as §1\n(§2) Different compound concentrations were added to one volume of enzyme mix (final concentrations: 50 mM Tris (pH 7.5), 0.005% Tween 20, 1 mg∙mL^−1 BSA, 0.7 nM Ld6PGD/0.7 nM Pf6PGD/0.9 nM Hs6PGD) and incubated for ten minutes. […] To increase the sensitivity of the assay, the increase of NADPH was monitored by measuring the fluorescence of NADPH at excitation 340 nm/emission 460 nm (ex340/em460). […] The reaction rate was calculated by dividing the relative fluorescence units (RFU) by time, and only a linear increase in absorbance/fluorescence was considered. IC50 values were calculated using GraphPad Prism 9.0 software and Microsoft Excel."}, "[7]": {"molecular_target": "T2, Hs6PGD (Homo sapiens, UniProt P52209)", "T2 sequence (P52209 1-483)": "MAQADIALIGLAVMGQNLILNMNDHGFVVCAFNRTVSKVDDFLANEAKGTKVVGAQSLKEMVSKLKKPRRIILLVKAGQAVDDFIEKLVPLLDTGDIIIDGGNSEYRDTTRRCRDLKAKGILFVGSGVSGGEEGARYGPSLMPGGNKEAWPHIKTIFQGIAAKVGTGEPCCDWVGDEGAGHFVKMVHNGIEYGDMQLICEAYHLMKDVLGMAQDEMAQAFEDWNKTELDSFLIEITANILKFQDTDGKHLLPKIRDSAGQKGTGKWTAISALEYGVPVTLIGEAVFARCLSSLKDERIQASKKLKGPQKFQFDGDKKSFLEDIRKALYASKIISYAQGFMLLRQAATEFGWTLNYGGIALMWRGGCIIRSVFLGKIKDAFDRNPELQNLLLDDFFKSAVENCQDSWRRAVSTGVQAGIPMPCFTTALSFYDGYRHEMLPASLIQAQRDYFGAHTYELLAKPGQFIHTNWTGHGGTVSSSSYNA", "assay": "Dose-response against recombinant Hs6PGD (NADPH fluorescence)", "type": "biochemical", "conditions": "25 µM 6PG, 20 µM NADP+, highest concentration 100 µM; read-out: IC50 for recombinant protein Hs6PGD", "procedure": "as §1, §2"}, "[8]": {"molecular_target": "Leishmania donovani 6-phosphogluconate dehydrogenase wild type (Leishmania donovani)", "assay": "SEC; HiLoad 16/60 Superdex 200 in buffer A (500 mM NaCl, 50 mM Tris, pH 7.8); native, with 5 mM DTT, with 2 mM H2O2, with 0.2 mM 6PG, 0.2 mM NADP+ or 0.2 mM NADPH; varying protein concentrations; the dimer peak was the same under all conditions"}}, "note": "Where two headings read alike, the source gives them in different places.", "data": [{"compound": "CC(=O)OC[C@H]1O[C@@H]([S-])[C@H](OC(C)=O)[C@@H](OC(C)=O)[C@@H]1OC(C)=O.CCP(CC)CC.[Au+]", "note": "[Auranofin]", "values": [{"measurement": "Concentrations at which increase in ROS and apoptotic-like cell death were observed", "setting": "[1]", "value": "10 to 50", "unit": "µM"}, {"measurement": "Inhibition of Ld6PGD at 50 µM", "setting": "[2]; 50 µM auranofin", "value": "completely inhibited"}, {"measurement": "IC50 against Ld6PGD with NADP+ at saturation", "setting": "[2]; enzyme incubated with auranofin and NADP+ at saturation, compared with IC50 at KM", "value": "unaffected"}, {"measurement": "Ki", "setting": "[3]", "value": "0.155 ± 0.035", "unit": "µM"}, {"measurement": "Ld6PGD activity of undiluted sample", "setting": "[4]; 30 µM auranofin (pre-dilution), substrates at KM", "value": "completely inhibited"}, {"measurement": "Reversibility of Ld6PGD inhibition", "setting": "[4]; 30 µM pre-dilution, diluted to 3 µM, 10 min each", "value": "irreversible"}, {"measurement": "Mode of inhibition against 6PG", "setting": "[5]; 6PG titrated, NADP+ 200 µM", "value": "mixed type of inhibition"}, {"measurement": "Mode of inhibition against NADP+", "setting": "[5]; NADP+ titrated, 6PG 300 µM", "value": "non-competitive inhibition"}, {"measurement": "Vmax, NADP+ titrated", "setting": "[5]; auranofin 1.875 µM", "value": 35.9, "unit": "U/mg"}, {"measurement": "Vmax, 6PG titrated", "setting": "[5]; auranofin 1.875 µM", "value": 36.43, "unit": "U/mg"}, {"measurement": "Vmax, NADP+ titrated", "setting": "[5]; auranofin 3.75 µM", "value": 34.45, "unit": "U/mg"}, {"measurement": "Vmax, 6PG titrated", "setting": "[5]; auranofin 3.75 µM", "value": 35.23, "unit": "U/mg"}, {"measurement": "Vmax, NADP+ titrated", "setting": "[5]; auranofin 7.5 µM", "value": 34.92, "unit": "U/mg"}, {"measurement": "Vmax, 6PG titrated", "setting": "[5]; auranofin 7.5 µM", "value": 29.59, "unit": "U/mg"}, {"measurement": "Vmax, NADP+ titrated", "setting": "[5]; auranofin 15 µM", "value": 31.07, "unit": "U/mg"}, {"measurement": "Vmax, 6PG titrated", "setting": "[5]; auranofin 15 µM", "value": 21.59, "unit": "U/mg"}, {"measurement": "Vmax, NADP+ titrated", "setting": "[5]; auranofin 30 µM", "value": 23.34, "unit": "U/mg"}, {"measurement": "Vmax, 6PG titrated", "setting": "[5]; auranofin 30 µM", "value": 7.71, "unit": "U/mg"}]}, {"compound": "CC[P](CC)(CC)=[Au][S][C@@H]1O[C@H](COC(C)=O)[C@@H](OC(C)=O)[C@H](OC(C)=O)[C@H]1OC(C)=O", "note": "[Auranofin]", "values": [{"measurement": "Ki", "setting": "[2]", "value": "3.8 ± 0.4", "unit": "µM"}, {"measurement": "IC50", "setting": "[2]; IC50 against Ld6PGD with 6PG at saturation, enzyme incubated with auranofin and 6PG at saturation", "value": "40.5 ± 1.9", "unit": "µM"}, {"measurement": "IC50", "setting": "[2]; IC50 for recombinant protein Ld6PGD, substrates close to KM (25 µM 6PG, 20 µM NADP+), 10 min incubation with enzyme", "value": "8.6 ± 1", "unit": "µM"}, {"measurement": "IC50", "setting": "[6]", "value": "20.1 ± 1.5", "unit": "µM"}, {"measurement": "IC50", "setting": "[7]", "value": "> 100", "unit": "µM"}]}, {"compound": "Leishmania donovani 6-phosphogluconate dehydrogenase wild type (enzyme)", "values": [{"measurement": "stoichiometry N", "setting": "[8]", "value": 2}]}, {"compound": "[Cl][Au].c1ccc(P(c2ccccc2)c2ccccc2)cc1", "note": "[Ph3PAuCl, chloro(triphenylphosphine)gold(I)]", "values": [{"measurement": "IC50", "setting": "[2]; substrates close to KM (25 µM 6PG, 20 µM NADP+), 10 min incubation with enzyme, read-out: IC50 for recombinant protein Ld6PGD", "value": "2.1 ± 0.3", "unit": "µM"}]}]}
